Reference: patent publication US20230202973A1, “BARNESIN A, DERIVATIVES AND USES THEREOF” (Leibniz-Institut Für Naturstoff-Forschung Und …, priority 2018, published 2023)
Read-outs that look alike come from different tables or passages of the source. Square brackets hold non-standard residues; d marks the D form. Peptide text beside a SMILES is read from it. * marks the point of attachment. Sta = CC(C)C[C@H](N)[C@@H](O)CC(=O)O; Isovaleryl = CC(C)CC(=O)*

What was measured:
[1] = molecular target: T1, Cathepsin B (Homo sapiens, UniProt P07858); settings: reported in literature; cells printed in nM; read-out: Cathepsin B, reported inhibitory activity as IC50 value; cited from earlier work
[2] = molecular target: T2, papain (Carica papaya, UniProt P00784); settings: reported in literature for known compounds; read-out: Papain, reported inhibitory activity as IC50 value; cited from earlier work
T2 construct: purchased Sigma-Aldrich P4762
T2 sequence (P00784 134-345): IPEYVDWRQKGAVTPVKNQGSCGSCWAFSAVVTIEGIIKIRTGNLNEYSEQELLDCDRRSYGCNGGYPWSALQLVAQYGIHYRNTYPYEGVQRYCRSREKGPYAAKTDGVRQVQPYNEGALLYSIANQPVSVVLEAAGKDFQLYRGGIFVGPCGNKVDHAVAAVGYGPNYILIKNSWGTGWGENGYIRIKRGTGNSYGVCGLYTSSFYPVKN

[3] = molecular target: T3, pepsin (Sus scrofa, UniProt P00791); experiment: Protease assay with azocasein: pepsin; format: biochemical; settings: azocasein substrate, pH 3.5; n.i. = no inhibition
T3 construct: purchased Sigma-Aldrich P6887
Experimental: (§1) Protease Assays with azocasein: Protease inhibition assays against the proteases papain, ficin, trypsin, pepsin and thermolysin were performed according to the protocol of Garcia-Carreño (loc. cit.) in a reaction buffer containing 25 mM TRIS-HCl, 0.15 M NaCl, pH 7.2 (or pH 3.5 for aspartic protease). The total assay volume was 47 μL buffer with 2 μL of the protease as well as 1 μL of suitable inhibitor or corresponding inhibitor solvent (100% MeoH or water). Final concentration of proteases was as follows: 2 mg/mL for papain (Sigma-Aldrich, P4762), 600 μg/mL for ficin (Sigma-Aldrich, F6008), 80 μg/mL for trypsin (Thermo Fisher, 23266), 60 mg/mL for pepsin (Sigma-Aldrich P6887)) and 2 μg/mL for thermolysin (Sigma-Aldrich, P1512).
(§2) Inhibitors were dissolved in 100% MeOH or water and added to the assay (1 μL); final concentration: 2% MeOH. Samples of control inhibitors were prepared as follows: (1) serine protease (trypsin): PMFS (2 mM) and soybean trypsin inhibitor (240 μM) (Sigma-Aldrich, T1021), (2) cysteine proteases (papain and ficin): iodacetamide (2 mM), (3) […] (pepsin): pepstatin A (1 μg/mL) (Sigma-Aldrich, P4265), (4) metalloprotease (thermolysin): EDTA (10 mM). […] Negative controls were performed with protease alone (without inhibitor) and MeOH at a final concentration of 2% (reference for activity of 100%). Extract absorbance controls were performed using inhibitor (1 μL in MeOH) without protease. Blanks were performed using 49 μL buffer and 1 μL MeOH.
(§3) Samples were incubated with buffer and suitable inhibitor (or without for negative controls) for 1 h at r.t. and the reaction was started afterward by adding 50 μl of […] substrate and incubated for 1 h at 37° C. After stopping the reaction with trichloracetic acid (TCA), the separation of the precipitate was accomplished by centrifugation at 6500 g for 5 min. The hydrolyzed substrate supernatant was incubated in an equal volume of 0.5 N NaOH for 5 min and the absorbance was measured at 440 nm. OD values of the protease control without inhibitor were used as reference for a 100% activity.
(§4) The log IC50 values were determined using the standard curves analyzing tool with four parameter logistic equation of SigmaPlot12 with technical triplicates. Propagation of error was calculated using the standard error and log IC50 values where the equation of error propagation is defined as Δy=0.43Δx/x.

[4] = tested on: ficin; experiment: Protease assay with azocasein: ficin; format: biochemical; settings: azocasein substrate, pH 7.2, n.i. = no inhibition; for IC50: read-out: Ficin, inhibitory activity as IC50 value
Experimental: as §1, §2, §3, §4

[5] = molecular target: T1, Cathepsin B; experiment: Cathepsin B inhibition assay (Z-Arg-Arg-AMC); format: biochemical; settings: Z-Arg-Arg-AMC substrate, pH 6.0, n.i. = no inhibition; for IC50: read-out: Cathepsin B, inhibitory activity as IC50 value
Experimental: Cathepsin B inhibition assay. Cathepsin B inhibition assay was determined according to Hiwasa et al. (loc. cit.) with minor changes. Cathepsin B was purchased from Sigma Aldrich (C0150) and stored in 50 mM sodium acetate, 1 mM EDTA, pH 5 (adjusted with acetic acid). Cathepsin B was activated by preincubation at 40° C. for 10 min in assay buffer (0.1 M sodium acetate 1.3 mM EDTA, pH 6.0 adjusted with acetic acid, 2 μM DTT, 2.6 mM cysteine and 0.05% Triton X100). […] Final concentration of cathepsin B was 0.1 mg/ml. […] After stopping the reaction with 85 μL buffer containing 100 mM sodium monochlor acetate, 30 mM sodium acetate, 70 mM acetic acid, the hydrolyzed substrate was detected at an excitation wavelength of 380 nm and a fluorescence wavelength of 450 nm, using a fluorophotometer. 1 μL of 1.5 mM leupeptin was used as enzyme inhibition control.

[6] = molecular target: T4, thermolysin (Bacillus thermoproteolyticus, UniProt P00800); experiment: Protease assay with azocasein: thermolysin; format: biochemical; settings: azocasein substrate, pH 7.2; n.i. = no inhibition
T4 construct: purchased Sigma-Aldrich P1512
Experimental: as §1, §2, §3, §4

[7] = molecular target: T2, papain; experiment: Protease assay with azocasein: papain; format: biochemical; settings: azocasein substrate, pH 7.2, n.i. = no inhibition; for IC50: read-out: Papain, inhibitory activity as IC50 value
Experimental: as §1, §2, §3, §4

[8] = molecular target: T5, trypsin (Bos taurus, UniProt P00760); experiment: Protease assay with azocasein: trypsin; format: biochemical; settings: azocasein substrate, pH 7.2; n.i. = no inhibition
T5 construct: purchased Thermo Fisher 23266
T5 sequence (P00760 24-246): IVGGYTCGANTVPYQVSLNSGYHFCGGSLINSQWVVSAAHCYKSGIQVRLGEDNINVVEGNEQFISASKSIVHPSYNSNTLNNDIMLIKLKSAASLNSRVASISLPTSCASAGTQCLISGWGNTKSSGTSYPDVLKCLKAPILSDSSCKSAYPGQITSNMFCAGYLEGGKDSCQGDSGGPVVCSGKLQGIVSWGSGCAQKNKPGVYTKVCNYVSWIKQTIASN
Experimental: as §1, §2, §3, §4

[9] = tested on: thermolysin (Sigma-Aldrich, P1512); settings: 10 mM EDTA
Experimental: (§5) Protease Assays with azocasein: Protease inhibition assays against the proteases papain, ficin, trypsin, pepsin and thermolysin were performed according to the protocol of Garcia-Carreño (loc. cit.) in a reaction buffer containing 25 mM TRIS-HCl, 0.15 M NaCl, pH 7.2 (or pH 3.5 for aspartic protease). The total assay volume was 47 μL buffer with 2 μL of the protease as well as 1 μL of suitable inhibitor or corresponding inhibitor solvent (100% MeoH or water). […]
(§6) Inhibitors were dissolved in 100% MeOH or water and added to the assay (1 μL); final concentration: 2% MeOH. […] Extract absorbance controls were performed using inhibitor (1 μL in MeOH) without protease. […]
(§7) Samples were incubated with buffer and suitable inhibitor (or without for negative controls) for 1 h at r.t. and the reaction was started afterward by adding 50 μl of […] substrate and incubated for 1 h at 37° C. […] The hydrolyzed substrate supernatant was incubated in an equal volume of 0.5 N NaOH for 5 min and the absorbance was measured at 440 nm. […]
as §4

[10] = molecular target: T1, Cathepsin B; experiment: Activity test against cathepsin B (initial screen, Table 5); format: biochemical; design: dose or concentration left out as unconfirmed
Experimental: (§8) Activity Tests Against Cathepsin B, Cathepsin L and Rhodesain.
(§9) The determination of the activity of the inhibitors against hCatL and RD was performed in fluorescence-based assays in accordance with the assays described in Giroud et al., ChemMedChem 12 (2017), 257-270 and Schirmeister, Bioorganic & Medicinal Chemistry Letters 27 (2017) 45-50. The biological activities against hCatL were determined using Cbz-Phe-Arg-AMC as substrate, which releases AMC (7-amino-4-methylcoumarin) after amide bond cleavage by the enzyme. The proteolytic activity of the enzyme can be monitored spectrophotometrically by the increase of fluorescence intensity by release of AMC (emission at 460 nm) upon hydrolysis. An initial screen at an inhibitor concentration […] was performed to identify ligands with an inhibition of hCatL and RD higher than 80%.

[11] = molecular target: Rhodesain (Trypanosoma brucei rhodesiense, UniProt Q95PM0); experiment: Fluorescence-based activity test against rhodesain; format: biochemical; settings: initial screen at an inhibitor concentration of 20 mM; ni = no inhibition
Experimental: as §8
Rhodesain is a central cysteine protease from Trypanosoma brucei rhodesiense and a potential drug target against human African trypanosomiasis (sleeping sickness).
as §9

[12] = molecular target: hCatL (Homo sapiens, UniProt P07711); experiment: Fluorescence-based activity test against cathepsin L (Cbz-Phe-Arg-AMC); format: biochemical; design: dose or concentration left out as unconfirmed
Experimental: as §8, §9

[13] = tested on: trypsin (Thermo Fisher, 23266); experiment: Protease assay with azocasein, trypsin; format: biochemical; settings: 2 mM PMFS
Experimental: as §5, §6, §7, §4

[14] = tested on: trypsin; settings: reported in literature for known compounds; read-out: Trypsin, reported inhibitory activity as IC50 value; cited from earlier work
[15] = tested on: ficin (Sigma-Aldrich, F6008); experiment: Protease assay with azocasein, ficin; format: biochemical; settings: 2 mM iodacetamide
Experimental: as §5, §6, §7, §4

[16] = molecular target: T6, papain (Sigma-Aldrich, P4762) (Carica papaya, UniProt P00784); experiment: Protease assay with azocasein, papain; format: biochemical; settings: 2 mM iodacetamide; read-out: inhibition of enzyme activity (control inhibitor), papain
T6 sequence (P00784 134-345): T2 sequence (P00784 134-345)
Experimental: as §5, §6, §7, §4

[17] = tested on: pepsin (Sigma-Aldrich P6887); experiment: Protease assay with azocasein, pepsin; format: biochemical; settings: 1 μg/mL pepstatin A
Experimental: as §5, §6, §7, §4

T4 sequence (P00800 233-548): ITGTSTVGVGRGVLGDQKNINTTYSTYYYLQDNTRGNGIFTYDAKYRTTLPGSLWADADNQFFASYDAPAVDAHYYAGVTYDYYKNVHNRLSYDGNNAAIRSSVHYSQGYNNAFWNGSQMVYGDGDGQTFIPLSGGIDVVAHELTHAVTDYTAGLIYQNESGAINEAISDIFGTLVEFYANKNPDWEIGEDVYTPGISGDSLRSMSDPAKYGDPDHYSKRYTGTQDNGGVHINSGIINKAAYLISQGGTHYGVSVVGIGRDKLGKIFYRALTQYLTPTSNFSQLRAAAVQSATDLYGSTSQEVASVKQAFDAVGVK
T3 sequence (P00791 60-385): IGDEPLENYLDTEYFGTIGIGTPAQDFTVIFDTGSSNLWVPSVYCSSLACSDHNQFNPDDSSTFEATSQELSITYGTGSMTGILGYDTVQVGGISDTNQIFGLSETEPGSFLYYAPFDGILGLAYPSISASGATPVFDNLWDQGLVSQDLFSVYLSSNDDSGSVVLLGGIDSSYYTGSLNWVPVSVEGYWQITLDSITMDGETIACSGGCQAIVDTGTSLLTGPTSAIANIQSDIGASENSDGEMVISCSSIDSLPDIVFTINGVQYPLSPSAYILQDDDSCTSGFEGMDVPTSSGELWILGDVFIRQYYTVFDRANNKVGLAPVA
Chain of Rhodesain (Q95PM0 entry or part of it): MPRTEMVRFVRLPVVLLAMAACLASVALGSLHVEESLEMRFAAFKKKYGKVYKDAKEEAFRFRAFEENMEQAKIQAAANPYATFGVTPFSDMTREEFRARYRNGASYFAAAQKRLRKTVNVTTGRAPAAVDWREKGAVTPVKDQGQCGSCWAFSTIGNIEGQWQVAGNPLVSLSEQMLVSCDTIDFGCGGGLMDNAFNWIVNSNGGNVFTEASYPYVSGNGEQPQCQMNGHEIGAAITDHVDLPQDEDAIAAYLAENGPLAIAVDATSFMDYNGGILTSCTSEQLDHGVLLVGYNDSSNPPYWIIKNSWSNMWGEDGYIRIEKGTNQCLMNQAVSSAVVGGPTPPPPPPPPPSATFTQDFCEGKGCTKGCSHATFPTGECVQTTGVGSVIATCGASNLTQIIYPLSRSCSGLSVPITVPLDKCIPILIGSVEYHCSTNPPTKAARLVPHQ
Chain of hCatL (P07711 114-333): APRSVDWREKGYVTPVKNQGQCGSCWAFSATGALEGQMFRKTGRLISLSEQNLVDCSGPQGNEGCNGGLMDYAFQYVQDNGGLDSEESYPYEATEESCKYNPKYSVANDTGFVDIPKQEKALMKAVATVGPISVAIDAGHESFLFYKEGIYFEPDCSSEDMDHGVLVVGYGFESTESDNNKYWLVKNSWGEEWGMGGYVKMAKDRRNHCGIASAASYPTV

CC(C)CC(=O)N[C@H](Cc1ccc(O)cc1)C(=O)N[C@H](C(=O)N[C@@H](C=O)Cc1ccccc1)C(C)C [YM 51084] (Isovaleryl-[dY]-Val-[dF]-aldehyde)
IC50 [1]: 12 nM
IC50 [2]: 2200 nM

CCCCC/C=C/C(=O)N[C@@H](Cc1ccc(O)cc1)C(=O)N[C@H](/C=C/C(=O)O)CCCNC(=N)N [Barnesin A (1), Barnesin A]
Pepsin, inhibitory activity as IC50 value [3]: n.i.
IC50 [4]: 3430 nM
IC50 [5]: 91.7 nM
Thermolysin, inhibitory activity as IC50 value [6]: n.i.
IC50 [7]: 16000 nM
Trypsin, inhibitory activity as IC50 value [8]: n.i.

CCCCCCCC(=O)N[C@@H](Cc1ccc(O)cc1)C(=O)N[C@@H](CCCNC(=N)N)CCC(=O)OC [(S), 2,3-17,18-Tetrahydrobarnesin A methyl ester, reference compound]
Pepsin, inhibitory activity as IC50 value [3]: n.i.
Ficin, inhibitory activity as IC50 value [4]: n.i.
Cathepsin B, inhibitory activity as IC50 value [5]: n.i.
Thermolysin, inhibitory activity as IC50 value [6]: n.i.
Papain, inhibitory activity as IC50 value [7]: n.i.
Trypsin, inhibitory activity as IC50 value [8]: n.i.

O=C(O)CN(CCN(CC(=O)O)CC(=O)O)CC(=O)O [EDTA]
inhibition of enzyme activity (control inhibitor), thermolysin [9]: > 95%

CCCCC/C=C/C(=O)N[C@H](Cc1ccc(O)cc1)C(=O)N[C@H](/C=C/C(=O)O)CCCNC(=N)N [drawing 49]
inhibition [10]: 5%
Rhodesain (%) inhibition [11]: ni
inhibition [12]: 7%

O=S(=O)(F)Cc1ccccc1 [PMFS]
inhibition of enzyme activity (control inhibitor), trypsin [13]: > 95%

CCCCCCCC(=O)N[C@@H](Cc1ccc(O)cc1)C(=O)N[C@H](/C=C/C(=O)O)CCCNC(=N)N [17,18-Dihydrobarnesin (4), 17,18-Dihydrobarnesin]
Pepsin, inhibitory activity as IC50 value [3]: n.i.
IC50 [4]: 1160 nM
IC50 [5]: 87.6 nM
Thermolysin, inhibitory activity as IC50 value [6]: n.i.
IC50 [7]: 4780 nM
Trypsin, inhibitory activity as IC50 value [8]: n.i.

Cystatin
IC50 [14]: 3500 nM
IC50 [2]: 29 nM

NC(=O)CI [iodacetamide]
inhibition of enzyme activity (control inhibitor), ficin [15]: > 95%
inhibition at 2000 µM [16]: > 95%

CC(=O)N[C@@H](CC(C)C)C(=O)N[C@@H](CC(C)C)C(=O)N[C@H](C=O)CCCNC(=N)N [Leupeptin, reference compound]
IC50 [14]: 2200 nM
IC50 [2]: 860 nM

CCCCCCCC(=O)N[C@@H](Cc1ccc(O)cc1)C(=O)N[C@@H](CCCNC(=N)N)CCC(=O)O [(R), 2,3,17,18-Tetrahydrobarnesin A, reference compound]
Pepsin, inhibitory activity as IC50 value [3]: n.i.
Ficin, inhibitory activity as IC50 value [4]: n.i.
Cathepsin B, inhibitory activity as IC50 value [5]: n.i.
Thermolysin, inhibitory activity as IC50 value [6]: n.i.
Papain, inhibitory activity as IC50 value [7]: n.i.
Trypsin, inhibitory activity as IC50 value [8]: n.i.

CCCCC/C=C/C(=O)N[C@@H](Cc1ccc(O)cc1)C(=O)N[C@H](/C=C/C(=O)OCC)CCCN=C(N)N [Barnesin A ethyl ester (3), (E)-Oct-2-enoyl-tyrosine-vinylogous arginine ethyl ester]
Pepsin, inhibitory activity as IC50 value [3]: n.i.
IC50 [4]: 3430 nM
IC50 [5]: 24 nM
Thermolysin, inhibitory activity as IC50 value [6]: n.i.
IC50 [7]: 2890 nM
Trypsin, inhibitory activity as IC50 value [8]: n.i.

CC(C)CC(=O)N[C@H](C(=O)N[C@H](C(=O)N[C@@H](CC(C)C)[C@@H](O)CC(=O)N[C@@H](C)C(=O)N[C@@H](CC(C)C)[C@@H](O)CC(=O)O)C(C)C)C(C)C [pepstatin A] (Isovaleryl-VV[Sta]A[Sta]-OH)
inhibition of enzyme activity (control inhibitor), pepsin [17]: > 95%

CC(C)[C@H](NC(=O)c1ccc(O)cc1)C(=O)N[C@H](C(=O)N[C@H](C=O)CCCNC(=N)N)C(C)C [Tokaramide A]
IC50 [1]: 62.4 nM
